Assay results published in patent US20140309295A1, “ANTIEPILEPTIC, HYPOCHOLESTEROLEMIC AND NEUROPROTECTIVE COMPOUND” (NEURON BIOPHARMA, S.A., priority 2009, published 2014).

Experiments:
[1] = system: FVB/NHan mice inoculated with kainate (KA); experiment: Mortality caused by kainate in mice (Kaplan-Meier); assay type: in vivo; conditions: 50 mg/kg i.p.
Protocol: All the animals included for the experimental process were 12-week old males of the FVB/NHan strain. The experiments were conducted strictly following the Guidance on the Operation of Animals (Scientific Procedures, Act. 1986). The animals had their respective quarantine period and were treated with maximum precaution to minimize possible contaminations for inoculations and handling. […]
The deaths were recorded during the entire time the assay lasted, and the results are shown in FIG. 8 by means of Kaplan-Meier survival curves. […]

[2] = system: CD1 mice inoculated with MPTP (subchronic); experiment: Subchronic MPTP model of Parkinson's disease in mice; assay type: in vivo
Protocol: All the animals included for the experimental process were 12-week old males of the CD1 strain. The experiments were conducted strictly following the Guidance on the Operation of Animals (Scientific Procedures, Act. 1986). The animals had their respective quarantine period and were treated with maximum precaution to minimize possible contaminations during inoculations and handling.
Twenty animals were used in this assay and the treatments were all conducted by intraperitoneal (i.p.) route with a volume of 100 μl, according to the following regimens: • i) PBS+MPTP+PBS regimen: 10 animals were initially treated with a daily dose for 2 days of PBS, from the second day onwards the animals were inoculated with 1 daily dose of MPTP at 30 mg/Kg for 5 days, at intervals of 2 hours by i.p. route. For the next 21 days they were administered 3 weekly doses of PBS. • ii) NST0037+MPTP+NST0037 regimen: 10 animals were initially treated with a daily dose for 2 days of NST0037 at 50 mg/kg, from the second day onwards the animals were inoculated with 1 daily dose of MPTP at 30 mg/Kg for 5 days, at intervals of 2 hours by i.p. route. For the next 21 days they were administered 3 weekly doses of NST0037 at 50 mg/kg.
Seven days before starting the treatments and at 7, 14 and 21 days post-inoculation of MPTP, the animals were subjected to a locomotor resistance test referred to as the Rotarod test for 2 minutes, recording the time the animals resisted walking over a cylinder which increased its speed from 4 to 40 r.p.m.
Once the treatment time of 21 days ended, the animals were sacrificed and the brains were dissected. The brain samples were processed and included in paraffin. For the analysis of the presence of dopaminergic neurons in the substantia nigra, the immunohistochemistry against the tyrosine-hydroxylase (TH) protein was performed in 5 μm thick sagittal sections.
Once the treatment time of 21 days ended, the animals were sacrificed and the brains were dissected. The brain samples were processed and included in paraffin. […]

in vitro = conditions: PAMPA, pH 7.4
[3] = system: human neuroblastoma SK-N-MC cells; experiment: Protection against neuronal death induced by endoplasmic reticulum stress (tunicamycin), WST-1; assay type: cell-based; conditions: 40 μM NST0037; 24 μM tunicamycin
Protocol: The assay was performed on human neuroblastoma SK-N-MC cells in culture from the American Type Culture Collection (ATCC), in all cases strict rules of sterility were followed and the manipulation was performed in class II biological safety cabinets following European standard EN 12469. The cells were maintained in the following culture medium: Minimum Essential Medium Eagle (MEM) supplemented with 1 mM sodium pyruvate, 2 mM L-glutamine, 0.1 mM non-essential amino acids, 0.05 mg/ml gentamicin and 10% fetal bovine serum.
The inhibition caused by compound NST0037 of cell death caused by treatment with tunicamycin generating reticular stress was analyzed. Tunicamycin is an inhibitor of protein N-glycosylation, causing abnormal protein folding in the endoplasmic reticulum, therefore said proteins are accumulated and cause stress, resulting in cell death. These cells, not exceeding 15 passages, were seeded on 96-well plates treated for adherent cells with a cell concentration of 5×10^4 cells/well; 3 wells of the plate were seeded for each condition of the assay. […]
The cells were incubated (at 37° C. and 5% CO2) with these treatments for 22 hours, after which time WST-1 reagent (Roche) was added. […] The formazan that is formed can be detected colorimetrically since it has an absorbance of 440 nm. The reading was taken in a plate reader at 440 nm 2 hours after adding the reagent.

CCC(CC)C(=O)O[C@H]1C[C@@H](C)C=C2C=C[C@H](C)[C@H](CC[C@@H]3C[C@@H](O)CC(=O)O3)[C@H]21 [NST0037, (1S,2S,6R,8S,8aR)-1,2,6,7,8,8a-hexahydro-3,7-dimethyl-8-[2-[(2R,4R)-tetrahydro-4-hydroxy-6-oxo-2H-pyran-2-yl]ethyl]-1-naphthalenyl-2-ethyl-butyrate]
mortality caused by KA (survival) ([1]; NST0037+KA+NST0037 regimen): protected against death
survival of the animals vs PBS+KA+PBS ([1]; PBS+KA+NST0037 regimen): increases
motor resistance (Rotarod test) ([2]; NST0037+MPTP+NST0037, 50 mg/kg i.p., MPTP 30 mg/Kg daily 5 days, up to 21 days): prevents the motor deterioration of the animals
dopaminergic neurons (tyrosine-hydroxylase) in substantia nigra ([2]; NST0037+MPTP+NST0037, 21 days): larger number of TH-positive cells
lipid peroxidation (HNE) in neurons of substantia nigra ([2]; NST0037+MPTP+NST0037, 21 days): modest number of isolated neurons with HNE-positive labeling
Papp at 18 h, 100 μM (in vitro): 3.1 ×10⁻⁶ cm/s
protection against death caused by Tm [3]: 55%
